Data on two compounds can be found in patent US8193192B2, “Heterocyclic FXR binding compounds” (Phenex Pharmaceuticals AG, priority 2006, dated 2012).

In brackets after ≈: the same amount, converted by molar mass.

Series [1] can be described thus: Aqueous solubility assay, Protocol B, shake-flask method. It is filed as physicochemical. To be noted: 10 mM PBS buffer with 1% MeOH, kinetic from dmso stock, 10 mM PBS buffer pH 7.4, 1% MeOH, room temperature, read-out: Aqueous solubility pH 7.4 (μM) (±standard deviation), shake-flask method. The method, then:
Aqueous solubility of compounds was determined by nephelometry or by shake-flask method as follows:
Protocol B, Shake-Flask Method:
Sample preparation: Sample and standard solution preparation is performed by mixing equal volumes of acetonitrile containing the internal standard (1 μM final concentration) with sample and calibration standard solutions (100 μl). After vigorously shaking (10 seconds) the samples are centrifuged (6000 g) for 5 minutes at 20° C. Aliquots of the particle-free supernatants are transferred to 200 μl sample vials and subsequently subjected to LC-MS/MS analysis. Assay procedure: Test concentration was 100 μM in 10 mM PBS buffer pH 7.4 with a final MeOH concentration of 1%. The volume of the incubation solution was 500 μl. Depending on each compound's solubility in MeOH, the stock concentration and the incubation concentration was adapted. The test solutions in quadruplicates were shaken at 300 rpm over a 20 hours period at room temperature, followed by centrifugation at 20000 g for 30 minutes to separate the solid phase. 100 μl of particle free sample are added to 100 μl acetonitrile containing the internal standard. The aqueous solubility of the compounds was determined by measuring the concentration of the PBS buffer supernatant by HPLC-MS/MS. Aqueous solubilities of examples and reference compounds are listed below in Table 3.

The nature of series [2]: Microsomal stability assay. It is filed as in vitro ADME. As to conditions: pH 7.4; mouse liver microsomes, 37° C. The method, then: Microsomal Stability Assay
In vitro assays were performed to evaluate the metabolic stability of test items in liver microsomes originating from mouse. Preparation of working standards of test items: Working solutions were prepared for each calibration level by appropriate dilution of the corresponding stock solution, depending on each compound's solubility in acetonitrile or acetonitrile/water. Calibration standards were prepared by spiking 196 μl standard matrix with 4 μl of the corresponding working solution. The standard matrix consists of 0.15 mg/ml of microsomal protein in phosphate buffer (100 mM pH 7.4), the final standard solutions contain 2% acetonitrile. The samples and standard solutions were extracted with ethyl acetate, isolation of the compounds was performed by addition of 600 μl ethyl acetate containing the internal standard (0.1 μM) to 200 μl sample and calibration standard. After vigorously shaking (10 minutes) and centrifugation (5000 g) the aqueous phase was separated by freezing in an acetone/dry ice bath and the organic phase is evaporated to dryness using a vacuum centrifuge. Samples were reconstituted in 200 μl acetonitrile/water mix (1:1 v/v) and subsequently subjected to LC-MS/MS. The incubation solution (180 μl) consisted of 90 μl of a microsomal suspension of 0.33 mg/ml of protein in phosphate buffer 100 mM pH 7.4 and 90 μl NADP-regenerating system. The reaction was initiated by the addition of 20 μl of test compound (in 20% acetonitrile) to the preincubated microsomes/buffer mix at 37° C. 200 μl samples were removed from the incubation after 0, 5, 10, and 30 minutes and processed for ethyl acetate extraction as described above. Negative controls using boiled microsomes (boiling water bath, 25 minutes) without regenerating system were run in parallel. The amount of compound in the samples is expressed as percentage of remaining compound compared to time point zero (=100%). These percentages were plotted against the corresponding time points. Intrinsic clearance (CLint) and half-life (t1/2) estimates were determined using the rate of parent disappearance and following formula (1) and (2). (1) CLint=(−k)×V×fu. (2) t1/2=ln 2/−k. Where CLint=intrinsic clearance [μl/min/mg protein], t1/2=half life [min], k=slope from the linear regression of log [test compound] versus time plot [1/min]. V=6666.7; fu=unbound fraction in the blood. Applying this protocol gave microsomal stabilities for examples and reference compounds as listed below in Table 6: […]
On the technique in general: Liver microsomes are a subcellular fraction often used to study metabolism.

Series [3] is described as follows: Determination of pharmacokinetic parameters in mice (oral cassette dosing). As to conditions: C57BL/6 mice, po 5 mg/kg; for Vd: elimination phase; for CL: total body clearance; for Cmax / Tmax / AUC(0-inf) / concentration at 10 min / concentration at 30 min / concentration at 60 min / concentration at 120 min / concentration at 240 min / concentration at 480 min: male, mouse, plasma; for AUC(0-inf): extrapolated to infinity; for concentration at 10 min / concentration at 30 min / concentration at 60 min / concentration at 120 min / concentration at 240 min / concentration at 480 min: cassette, read-out: mean plasma conc. The series is classed as in vivo. The method, then: FIG. 1: Graphical depiction of pharmacokinetic data of compound A compared to example 3. Compound plasma concentrations (logarithmic scale) are plottet against sampling timepoints. Conditions: C57BL/6 mice, oral cassette dosing, 5 mg/Kg in 10% HPBCD/20 mM phosphate buffer.
Determination of Pharmacokinetic Parameters in Mice
Data on the rate and extent of absorption of the test compounds were generated. Compounds were applied perorally at 5 mg/kg each to male 8 weeks old C57BL/6 mice and plasma concentrations of the test items were determined by LC-MS/MS. A solution of […] of each test item was produced by diluting them in the vehicle, 10% HPBCD (hydroxypropyl-beta-cyclodextrin) in 20 mM phosphate buffer pH 7.0 (v/w). These solutions were stirred overnight at room temperature and heated to 60° C. for 10 minutes, resulting in a full solubilization. Then, an identical volume of each solution were mixed together to constitute the cassette. The application was performed by administrating the solution perorally to the mice, with an application volume of 10 ml/kg. […] Blood samples were obtained by sacrificing three animals for each time point (10, 30, 60, 120, 240, and 480 min) followed by cardiac puncture. Blood samples were treated with Li-heparin during collection procedure and stored on ice until centrifugation at 645 g (5 min, 4° C.). Plasma was harvested and kept at −20° C. until being assayed. To 50 μl of mouse plasma sample 6 μl acetonitrile containing an internal standard was added. Samples were vigorously shaken and centrifuged for 10 minutes at 6000 g and 20° C. An aliquot of the particle-free supernatant was transferred to 200 μl sampler vials and subsequently subjected to LC MS/MS for quantification.
Concentrations were plotted against sampling time for illustrating higher plasma levels of example 3 compared to plasma levels of compound A. The results are illustrated in FIG. 1.
PK calculation: The pharmacokinetic analysis of raw data was performed by applying a non-compartment model using the PK Solutions 2.0 software (Summit Research Services, Montrose, USA). All given parameters are model independent and were obtained by trapezoid area calculation and have the following meaning:
Cmax obs: maximal measured concentration;
tmax obs: time to reach the maximum measured concentration;
AUC0-∞: area under the concentration-time curve extrapolated to infinity;
Vd: volume of distribution during elimination phase;
CL: total body clearance.

Take `CC(C)c1onc(-c2c(Cl)cccc2Cl)c1COc1ccc(Oc2ccc(C(=O)O)cc2)cc1` [Compound A, reference compound]: the solubility at 20 h in series [1] is 72.4 µM (≈ 36.1 µg/mL). In series [2], the half-life stood at 22 min and the intrinsic metabolic clearance (microsomal CLint) was determined as 207 µL/min/mg. In series [3], the Vd worked out at 110.078 L/kg, the CL was 343 mL/min/kg, the Cmax is 120 ng/mL and the Tmax is 10 min. In series [3], the AUC(0-inf) was 242 ng·h/mL, the concentration at 10 min came out at 120 ng/mL, the concentration at 30 min was found to be 102 ng/mL and the concentration at 60 min was 43 ng/mL. Further, in series [3], the concentration at 120 min came out at 24 ng/mL, the concentration at 240 min is 15 ng/mL and the concentration at 480 min is 8 ng/mL.
For the compound `Cc1cc(OCc2c(-c3c(Cl)cccc3Cl)noc2C(C)C)cnc1Oc1ccc(C(=O)O)cc1` [Example 3, 4-(5-((3-(2,6-Dichlorophenyl)-5-isopropylisoxazol-4-yl)methoxy)-3-methylpyridin-2-yloxy)benzoic acid], the solubility at 20 h in series [1] amounted to 188 µM (≈ 96.5 µg/mL). Also, in series [2], the half-life was 30 min and the microsomal CLint came to 153 µL/min/mg. In series [3], the Vd was 9.271 L/kg, the CL amounted to 59 mL/min/kg, the Cmax was 904 ng/mL and the time of peak concentration (Tmax) was 10 min. For the same compound, in series [3], the AUC(0-inf) is 1410 ng·h/mL, the concentration at 10 min was 904 ng/mL, the concentration at 30 min was found to be 867 ng/mL and the concentration at 60 min was found to be 291 ng/mL. Moreover, in series [3], the concentration at 120 min was found to be 214 ng/mL, the concentration at 240 min was determined as 63 ng/mL and the concentration at 480 min amounted to 20 ng/mL.

For orientation: solubility means the concentration that dissolves in the medium under given conditions. One may read the half-life as how long it takes for the measured level to halve. Higher therefore signals slow decline. As a reminder, the microsomal CLint is the rate of metabolic loss divided by the concentration. Lower therefore signals slow turnover. In general, Cmax refers to the peak of the concentration-time curve. The Tmax is the time from dosing to the highest level. By AUC(0-inf) is commonly meant total exposure, with the tail of the curve extrapolated.
